From PubChem BioAssay AID179 (DTP/NCI, 2004)
Active and inactive are the calls of the source.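 Rule for the calls: active = compounds giving half or more protection of infected cells from virus-caused growth loss, again on retest; inactive = the rest.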

Tested on: CEM cells HIV-1 protection, formazan growth assay
Assay: NCI AIDS Antiviral Assay
Details: for IC50: measured here: growth of uninfected CEM cells
In short: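 Category rules: moderately active means at least 50% protection on retest, and confirmed active means 100% protection reproducibly. The underlying data came from a formazan growth assay in HIV-1-infected CEM cells.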

Row | Compound | EC50 | IC50 | outcome
1 | Cc1ccc(-c2cc(-c3ccccc3)c(C#N)c(=O)n2C2OC(CO)C(O)C(O)C2O)cc1 (stereo not given) | 21.4 µM | 22.4 µM | –
2 | Cc1ccc(S(=O)(=O)N2C[C@](O)(c3ccccc3)[C@H]2C)cc1 | > 200 µM | 195 µM | –
3 | CC(=O)Nc1ccc(C(=O)CCC(NC(C)=O)C(=O)O)cc1 (stereo not given) | > 200 µM | > 200 µM | –
4 | Cc1cccc(NC2=NCCO2)c1Cl | > 200 µM | 105 µM | –
5 | O=C1CSC(c2ccccc2O)N1c1ccc(Oc2ccc(Cl)cc2)c(Cl)c1 (stereo not given) | > 100 µM | 24 µM | –
6 | COc1cc2oc(-c3ccc4c(c3)OCO4)c(OC)c(=O)c2c(OC)c1OC | 155 µM | > 200 µM | –
7 | COc1ccccc1NC(=O)O/N=C(/Cl)C(C)C | > 200 µM | 7.41 µM | –
8 | C=CCNC(=S)Nc1ccccn1 | > 200 µM | > 200 µM | –
9 | COc1ccc(C2Oc3cc(OC)cc(O)c3C(=O)C2C2C(=O)c3c(O)cc(OC)cc3OC2c2ccc(O)cc2)cc1 (stereo not given) | > 200 µM | 37.2 µM | –
10 | CC1(C)OCC(COC(=O)NCn2cc(-c3ccccc3)nn2)O1 (stereo not given) | > 200 µM | > 200 µM | –
11 | CC(=O)c1c2c(cc3c1CC1(Cc4ccccc4C1=O)C3)CCC2 (stereo not given) | > 200 µM | 17.8 µM | –
12 | Cn1cc2ccccc2c1-c1nc(F)nc(Nc2ccc(N)cc2)n1 | > 15.5 µM | 7.94 µM | –
13 | COc1cccc(C2C3=C(COC3=O)Oc3cc4c(cc32)OCO4)c1 (stereo not given) | > 2 µM | 0.0851 µM | –
14 | N=C(N)C1CN(CCc2c[nH]c3ccccc23)C(=O)NC1=O (stereo not given) | > 200 µM | > 200 µM | –
15 | O=C1NCCN1/N=C/c1ccc([N+](=O)[O-])o1 | > 200 µM | 120 µM | –
16 | COC/C=C\[C@@]1(O)CCCC[C@@H]1CC(OC)OC | > 200 µM | 1.23 µM | –
17 | CC(NNC(=O)c1ccncc1)c1ccc(Cl)cc1Cl (stereo not given) | > 200 µM | 132 µM | –
18 | O=c1ccn(C2OC(CO)C(F)C2F)c(=O)[nH]1 (stereo not given) | > 501 µM | > 501 µM | –
19 | Cc1cc(C2(c3cc(C)c(O)c(CN(CC(=O)O)CC(=O)O)c3)OS(=O)(=O)c3ccccc32)cc(CN(CC(=O)O)CC(=O)O)c1O | 93.3 µM | > 100 µM | –
20 | COc1cc2c(cc1OC)C1C=NC(C2)c2cc(OC)c(OC)cc21 (stereo not given) | – | – | inactive
21 | CCOC(=O)C1(C/C=C\CBr)CCCCCCC1=O (stereo not given) | > 200 µM | 16.2 µM | –
22 | O=C1C=CC2O[C@H](c3ccccc3)[C@@H](O)C2O1 (stereo not given in full) | > 1070 µM | 6.46 µM | –

Row | Compound | EC50 | IC50 | outcome
23 | COC(=O)C1(C)NCCc2c1[nH]c1ccccc21 (stereo not given) | > 331 µM | > 331 µM | –
24 | COc1ccc(Br)c(C=Nc2cccc3cc(OC)c(OC)cc23)c1 | – | – | inactive
25 | CC1(C)C(=O)C(C)(C)C1=NNC(N)=S | > 417 µM | 263 µM | –
26 | COC(=O)C1=COC(C)C2C[n+]3ccc4c([nH]c5ccccc54)c3CC12 (stereo not given) | > 200 µM | > 200 µM | –
27 | C[Si](C)(C)O[C@@H]1CCCC1N (stereo not given in full) | – | – | inactive
28 | CC1CC(=O)Nc2ccccc2N1C(=O)CN1CCC(CCCCN(C)C)CC1 (stereo not given) | > 251 µM | > 251 µM | –
29 | CO[C@]12[C@@H](COC(=O)NCCO)C3=C(C(=O)C(C)=C(N)C3=O)N1C[C@@H]1[C@H]2N1C (stereo not given in full) | > 200 µM | 52.5 µM | –
30 | C=C1CN(S(=O)(=O)c2ccc(C)cc2)CCCN(Cc2ccc[nH]2)CCCN(S(=O)(=O)c2ccc(C)cc2)C1 | > 200 µM | 14.5 µM | –
31 | COc1ccc(N2C(=O)C(C#N)=C(SC)C(C#N)C2=O)cc1 (stereo not given) | > 200 µM | 174 µM | –
32 | CCn1c(O)c(C=Nc2ccccc2)s/c1=N/Nc1nc(-c2ccc([N+](=O)[O-])cc2)cs1 | > 200 µM | 14.5 µM | –
33 | ClC/C=C/C[P+](c1ccccc1)(c1ccccc1)c1ccccc1 | > 200 µM | 3.16 µM | –
34 | COC(=O)/C(=C\c1ccc(N(CCC#N)CCC#N)cc1)NC(=O)c1cc([N+](=O)[O-])ccc1Cl | > 74.1 µM | > 74.1 µM | –
35 | CN=C(N)c1ncn(C2OC(CO)C(O)C2O)n1 (stereo not given) | – | – | inactive
36 | Cc1cc(OCc2nnc3n2S(=O)(=O)c2ccccc2N3C)ccc1Cl | > 200 µM | > 200 µM | –
37 | CCOC(=O)c1ccc(NC(=O)Nc2ncc(Cl)cc2Cl)cc1 | > 200 µM | > 200 µM | –
38 | CCOC(=O)c1nc2ccc(Cl)cc2c2c1CCO2 | > 5.25 µM | > 5.25 µM | –
39 | Cc1csc(CP(=O)(OC(C)C)OC(C)C)n1 | > 200 µM | > 200 µM | –
40 | CO/N=C(/C(=O)N(C(=O)/C(=N/OC)c1csc(NC(c2ccccc2)(c2ccccc2)c2ccccc2)n1)n1cnn(CC(=O)OC(C)(C)C)c1=O)c1csc(NC(c2ccccc2)(c2ccccc2)c2ccccc2)n1 | > 200 µM | 174 µM | –
41 | CN(C)c1ccc(/C=C(\C#N)c2ccc(Cl)cc2)c(Cl)c1 | > 50.1 µM | 4.9 µM | –
42 | Cc1cc(C)nc(NS(=O)(=O)c2ccc(NC(=O)NC(F)(F)F)cc2)n1 | > 200 µM | > 200 µM | –
43 | OC1c2ccccc2-c2nc3cccccc-3c21 (stereo not given) | > 155 µM | 24 µM | –
44 | Nc1ncnc2c1ncn2C1OC(CO)(C(F)(F)F)C(O)C1O (stereo not given) | > 200 µM | 182 µM | –

Row | Compound | EC50 | IC50 | outcome
45 | O=C(O)C1COCN1C(=O)c1cccnc1SSc1ncccc1C(=O)N1COCC1C(=O)O (stereo not given) | > 200 µM | > 200 µM | –
46 | O=C1c2ccccc2S(=O)(=O)c2ccccc21 | 129 µM | 501 µM | –
47 | Cc1cc(=O)n2c(cc3cccccc32)n1 | – | – | inactive
48 | COc1ccc2c(c1)OCc1c-2oc2ccccc2c1=O | > 100 µM | > 100 µM | –
49 | Cn1c(=O)c2nc(-c3ccc(Cl)c(Cl)c3)c(-c3ccc(Cl)c(Cl)c3)nc2n(C)c1=O | > 200 µM | 29.5 µM | –
50 | CC/C(=N\NS(=O)(=O)c1ccccc1)c1ccccc1 | – | – | inactive
51 | O=C1C=CC2OC(c3ccccc3)C(O)C2O1 (stereo not given) | > 1070 µM | 11.5 µM | –
52 | Cc1ccc(-c2n[nH]c(=O)[nH]2)cc1 | > 200 µM | > 200 µM | –
53 | CN1C(=O)[C@@H]2[C@@H]3c4ccccc4N[C@@H]3c3[nH]c4ccccc4c3[C@@H]2C1=O | > 200 µM | 81.3 µM | –
54 | CCOC(=O)C(=O)Nc1ccc([N+](=O)[O-])cc1C#N | > 355 µM | > 355 µM | –
55 | N#Cc1c(-c2ccccc2)cc(-c2ccc(Cl)cc2)[nH]c1=S | > 200 µM | 33.9 µM | –
56 | CCCN(CCC)C(=O)Cc1c2n(c3ccccc13)Cc1ccccc1-2 | > 15.1 µM | 5.89 µM | –
57 | O=C(NCCCCN(CCCNC(=O)C(F)(F)F)Cc1ccc2ccccc2c1)C(F)(F)F | > 200 µM | 34.7 µM | –
58 | CC1OC(=O)N(CCCC=C2SCCCS2)C1=O (stereo not given) | – | – | inactive
59 | CC(C)CCCC(C)[C@H]1CC[C@H]2[C@@H]3CC[C@H]4C[C@@H](CCC=C(c5cc(Cl)c(O)c(C(=O)OC(C)C)c5)c5cc(Cl)c(O)c(C(=O)OC(C)C)c5)CC[C@]4(C)[C@H]3CC[C@]12C (stereo not given in full) | 67.6 µM | 151 µM | –
60 | O=C(CC(C(=O)c1cccs1)c1ccsc1)c1ccccc1 (stereo not given) | > 200 µM | 151 µM | –
61 | CCOc1cc2c(cc1O)/C(=N\N)C[C@@H]1[C@@H]2CC[C@]2(C)[C@@H](O)CC[C@@H]12 | > 2 µM | 0.209 µM | –
62 | C=C(C)[C@@H](C(=O)OC)N1C(=O)c2ccccc2C1=O | > 200 µM | > 200 µM | –
63 | C[C@@H]1OC(=O)N2CCCC(=C3SCCCS3)C12 (stereo not given in full) | – | – | inactive
64 | O=[N+]([O-])c1cccc(-c2csc(N=Nc3c(O)[nH]c4ccccc34)n2)c1 | > 200 µM | > 200 µM | –
65 | O/N=C1\CCc2nonc2\C1=N/Nc1ccccc1 | > 200 µM | > 200 µM | –
66 | COc1c(CC(C)=O)ccc2c1C(=O)c1ccc(C=O)c(OC(C)=O)c1C2=O | – | – | inactive

Row | Compound | EC50 | IC50 | outcome
67 | Cc1cc(NC(=O)c2ccc(N)cc2)ccc1N=Nc1ccc2c(O)c(N=Nc3ccc4cc(S(=O)(=O)O)ccc4c3)c(S(=O)(=O)O)cc2c1 | 25.1 µM | > 100 µM | –
68 | CC(C)=CCNc1ncnc2c1ncn2C1OC(CO)C(O)C1O (stereo not given) | > 200 µM | 15.5 µM | –
69 | O=C(O)C(Cc1ccc2c(c1)CCC2)(Cc1ccc2c(c1)CCC2)C(=O)O | > 200 µM | > 200 µM | –
70 | CC(=O)c1c2c(cc3c1CC1(C3)Cc3cc4c(c(C(=O)O)c3C1)CCC4)CCC2 (stereo not given) | > 18.6 µM | > 18.6 µM | –
71 | O=C(c1ccccc1)c1nc2ccc(Cl)cc2cc1C(Br)Br | > 3.31 µM | > 3.31 µM | –
72 | COc1cc(C)c(O)c(C[P+](c2ccccc2)(c2ccccc2)c2ccccc2)c1 | > 200 µM | 11.7 µM | –
73 | NC(C(=O)OC(=O)c1ccccc1)C(=O)OC(=O)c1ccccc1 | > 200 µM | 97.7 µM | –
74 | NC(N)=NS(=O)(=O)c1ccc(NC(=O)c2ccc(Cl)c3c(Nc4ccc(S(=O)(=O)N=C(N)N)cc4)c4ccccc4nc23)cc1 | > 28.2 µM | > 28.2 µM | –
75 | CCOC(=O)c1cncc(C#N)c1 | > 200 µM | 105 µM | –
76 | CCOC(=O)Cc1nc2sc3c(c2c(=O)[nH]1)CCCC3 | > 324 µM | > 324 µM | –
77 | COc1ccc(NCC/C=C\[Si](C)(C)C)cc1 | – | – | inactive
78 | O=C(C(/C=N/C(=S)NC1C(=O)Nc2ccccc21)=C(/O)c1ccccc1)c1ccccc1 (stereo not given) | > 200 µM | 41.7 µM | –
79 | CC(C)(C)c1cc(C(C)(C)C)c(N=O)c(C(C)(C)C)c1 | > 200 µM | > 200 µM | –
80 | CCC[n+]1nc2ccccc2c(=Nc2ccccc2[N+](=O)[O-])[n-]1 | > 23.4 µM | > 23.4 µM | –
81 | N#Cc1ccccc1/C=N/O | > 35.5 µM | > 35.5 µM | –
82 | CC(C)CCOC(=O)NC(Nc1ccc(F)cc1)(C(F)(F)F)C(F)(F)F | – | – | inactive
83 | COc1ccc(SSc2ccc(OC)cc2)cc1 | > 200 µM | > 200 µM | –
84 | c1ccc(C2=NOC(c3ccccc3)N2C23CC4CC(CC(C4)C2)C3)cc1 (stereo not given) | > 200 µM | > 200 µM | –
85 | CC(=O)N1CCSC(C(=O)Nc2ccccc2)=C1C | > 646 µM | > 646 µM | –
86 | CCN(CC)CCN1C(=O)c2cccc3c(N)c(OC)cc(c23)C1=O | > 200 µM | 3.39 µM | –
87 | C[C@]12CC[C@@H]3c4cc(OCC(F)(F)F)c(O)cc4/C(=N/O)C[C@H]3[C@@H]1CC[C@@H]2O | > 0.2 µM | 0.0933 µM | –
88 | CCC1N2CCCCC2[C@@H]2c3[nH]c4ccccc4c3CCN12 (stereo not given in full) | > 447 µM | 389 µM | –
